Test results: ChEMBL document CHEMBL2074166, “Transport of fluorescein in MDCKII-MRP1 transfected cells and mrp1-knockout mice” (Biochem Biophys Res Commun, 2001)

Molecular target: Multidrug resistance-associated protein 1 (Homo sapiens, UniProt P33527)
Test: TP_TRANSPORTER: intracellular accumulation in MRP1-expressing MDCKII cells
Format: functional, cell-based
Conditions: dog, mdck-ii

Chain of Multidrug resistance-associated protein 1 (P33527 whole entry): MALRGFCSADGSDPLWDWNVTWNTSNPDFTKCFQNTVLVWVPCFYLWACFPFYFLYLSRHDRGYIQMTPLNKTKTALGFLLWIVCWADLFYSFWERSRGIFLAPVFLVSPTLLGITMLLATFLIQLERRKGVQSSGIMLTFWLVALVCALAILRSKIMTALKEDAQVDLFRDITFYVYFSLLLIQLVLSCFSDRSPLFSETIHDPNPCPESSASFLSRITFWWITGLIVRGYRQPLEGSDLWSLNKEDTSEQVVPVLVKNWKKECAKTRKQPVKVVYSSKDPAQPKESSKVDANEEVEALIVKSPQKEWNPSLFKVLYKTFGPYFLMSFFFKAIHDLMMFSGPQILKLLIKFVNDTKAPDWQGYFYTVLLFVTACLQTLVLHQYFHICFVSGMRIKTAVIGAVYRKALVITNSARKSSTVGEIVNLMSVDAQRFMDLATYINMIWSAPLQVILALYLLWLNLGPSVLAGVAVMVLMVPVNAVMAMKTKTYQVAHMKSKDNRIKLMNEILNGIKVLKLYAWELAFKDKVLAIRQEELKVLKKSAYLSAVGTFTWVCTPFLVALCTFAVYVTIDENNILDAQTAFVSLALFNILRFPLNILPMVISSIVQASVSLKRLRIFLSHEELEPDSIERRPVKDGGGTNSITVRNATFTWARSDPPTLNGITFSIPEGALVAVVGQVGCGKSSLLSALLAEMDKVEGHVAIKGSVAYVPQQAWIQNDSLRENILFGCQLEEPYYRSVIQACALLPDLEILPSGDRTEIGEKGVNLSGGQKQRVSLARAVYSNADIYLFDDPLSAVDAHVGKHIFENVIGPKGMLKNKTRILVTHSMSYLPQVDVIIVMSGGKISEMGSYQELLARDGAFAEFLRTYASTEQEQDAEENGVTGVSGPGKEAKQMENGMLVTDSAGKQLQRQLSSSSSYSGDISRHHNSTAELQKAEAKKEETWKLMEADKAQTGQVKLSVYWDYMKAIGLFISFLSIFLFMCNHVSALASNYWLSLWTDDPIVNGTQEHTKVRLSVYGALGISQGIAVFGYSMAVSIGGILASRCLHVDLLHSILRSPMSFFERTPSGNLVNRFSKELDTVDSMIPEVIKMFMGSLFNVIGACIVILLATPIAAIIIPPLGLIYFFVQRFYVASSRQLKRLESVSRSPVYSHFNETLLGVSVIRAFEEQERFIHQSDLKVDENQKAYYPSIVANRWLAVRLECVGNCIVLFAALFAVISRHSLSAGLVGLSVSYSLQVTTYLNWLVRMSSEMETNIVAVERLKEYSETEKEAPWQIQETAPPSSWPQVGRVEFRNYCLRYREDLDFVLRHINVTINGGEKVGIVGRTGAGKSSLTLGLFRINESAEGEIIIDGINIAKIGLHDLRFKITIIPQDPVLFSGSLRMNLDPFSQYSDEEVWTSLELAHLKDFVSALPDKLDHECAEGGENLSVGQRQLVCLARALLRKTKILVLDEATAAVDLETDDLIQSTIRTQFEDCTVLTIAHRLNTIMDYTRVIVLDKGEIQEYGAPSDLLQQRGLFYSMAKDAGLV

Activity: substrate [+]
Compound: O=C1OC2(c3ccc(O)cc3Oc3cc(O)ccc32)c2ccccc21 [FLUORESCEIN]
